Measured values from patent publication US8242055B2, “Herbicidally and insecticidally active phenyl-substituted pyridazinones” (Bayer Cropscience AG, priority 2008, dated 2012).
Each block holds one compound with its values, some of them ahead of it.

How the values were obtained:
Meloidogyne incognita = Meloidogyne incognita test (MELGIN); format: in vivo; conditions: application rate 20 ppm, lettuce roots; 100% = no galls formed
Experimental: [table] To produce a suitable preparation of active compound, 1 part by weight of active compound is mixed with the stated amounts of solvents and emulsifier, and the concentrate is diluted with water to the desired concentration. Containers are filled with sand, solution of active compound, Meloidogyne incognita egg/larvae suspension and lettuce seeds. The lettuce seeds germinate and the plants develop. On the roots, galls are formed. After the desired period of time, the nematicidal activity is determined in % by the formation of galls. 100% means that no galls are formed; 0% means that the number of galls on the treated plants corresponds to that of the untreated control.

[1] = tested on: eggs of the tobacco bud worm (Heliothis virescens); experiment: Heliothis virescens test (spray treatment); format: in vivo; conditions: spray treatment of soybean leaves, application rate 500 g/ha, after 7 days; 100% = all eggs killed
Experimental: [table] To produce a suitable preparation of active compound, 1 part by weight of active compound is mixed with the stated amounts of solvents and emulsifier, and the concentrate is diluted with emulsifier-containing water to the desired concentration. Soybean leaves (Glycine max.) are sprayed with an active compound preparation of the desired concentration and, after drying, populated with eggs of the tobacco bud worm (Heliothis virescens). After 7 days, the effect in % is determined. 100% means that all the eggs have been killed; 0% means that none of the eggs have been killed.

Structure (SMILES): CC(C)(C)n1ncc(O)c(-c2cc(-c3ccc(Cl)cc3)ccc2Cl)c1=O [I-1-a-10]
nematicidal activity in % by the formation of galls (Meloidogyne incognita): at least 80%

Structure (SMILES): CC(C)(C)n1ncc(O)c(-c2ccc(Cl)cc2Cl)c1=O [I-1-a-5]
effect in % (eggs killed) [1]: at least 80%

melting point: 315 °C
Structure (SMILES): Cn1ncc(O)c(-c2ccc(Cl)c(Cl)c2)c1=O [I-1-a-4, 4-(3,4-dichlorophenyl)-5-hydroxy-2-methyl-3(2H)-pyridazinone]
